Laboratory results reported in publication PMC11702208 (RSC Advances, 2025).

Assays:
IGROV1 = assay: NCI cytotoxicity screen; assay type: cell-based, human
COLO 205 = assay: NCI cytotoxicity screen; assay type: cell-based, human
HT29 = assay: NCI cytotoxicity screen; assay type: cell-based, human; conditions: HT-29
OVCAR-8 = assay: NCI cytotoxicity screen; assay type: cell-based, human
UACC-62 = assay: NCI cytotoxicity screen; assay type: cell-based, human
CAKI-1 = assay: NCI cytotoxicity screen; assay type: cell-based, human
[1] = test system: NSC lung cancer subpanel tumor cell lines; assay: NCI cytotoxicity screen, subpanel; assay type: cell-based, human
NCI-H322M = assay: NCI cytotoxicity screen; assay type: cell-based, human
HCC-2998 = assay: NCI cytotoxicity screen; assay type: cell-based, human
SNB-75 = assay: NCI cytotoxicity screen; assay type: cell-based, human
T-47D = assay: NCI cytotoxicity screen; assay type: cell-based, human
HOP-62 = assay: NCI cytotoxicity screen; assay type: cell-based, human
HOP-92 = assay: NCI cytotoxicity screen; assay type: cell-based, human; conditions: 10.0 μM one dose
SR = assay: NCI cytotoxicity screen; assay type: cell-based, human
SF-295 = assay: NCI cytotoxicity screen; assay type: cell-based, human
OVCAR-5 = assay: NCI cytotoxicity screen; assay type: cell-based, human
SF-268 = assay: NCI cytotoxicity screen; assay type: cell-based, human
HL-60(TB) = assay: cells; conditions: Homo sapiens
SK-MEL-2 = assay: NCI cytotoxicity screen; assay type: cell-based, human
HCT-116 = assay: NCI cytotoxicity screen; assay type: cell-based, human
NCI-H460 = assay: NCI cytotoxicity screen; assay type: cell-based, human
SN12C = assay: NCI cytotoxicity screen; assay type: cell-based, human
SW-620 = assay: NCI cytotoxicity screen; assay type: cell-based, human
SNB-19 = assay: NCI cytotoxicity screen; assay type: cell-based, human
BT-549 = assay: NCI cytotoxicity screen; assay type: cell-based, human
[2] = test system: Colon cancer subpanel tumor cell lines; assay: NCI cytotoxicity screen, subpanel; assay type: cell-based, human
EKVX = assay: NCI cytotoxicity screen; assay type: cell-based, human
TK-10 = assay: NCI cytotoxicity screen; assay type: cell-based, human
OVCAR-3 = assay: NCI cytotoxicity screen; assay type: cell-based, human
[3] = test system: CNS cancer subpanel tumor cell lines; assay: NCI cytotoxicity screen, subpanel; assay type: cell-based, human
MDA-MB-231/ATCC = assay: NCI cytotoxicity screen; assay type: cell-based, human
HCT-15 = assay: NCI cytotoxicity screen; assay type: cell-based, human
[4] = test system: Prostate cancer subpanel tumor cell lines; assay: NCI cytotoxicity screen, subpanel; assay type: cell-based, human
MDA-MB-468 = assay: NCI cytotoxicity screen; assay type: cell-based, human
MALME-3M = assay: NCI cytotoxicity screen; assay type: cell-based, human
NCI-H226 = assay: NCI cytotoxicity screen; assay type: cell-based, human
UO-31 = assay: NCI cytotoxicity screen; assay type: cell-based, human
OVCAR-4 = assay: NCI cytotoxicity screen; assay type: cell-based, human
MCF7 = assay: NCI cytotoxicity screen; assay type: cell-based, human
K-562 = assay: cells; conditions: Homo sapiens, K562
NCI/ADR-RES = assay: NCI cytotoxicity screen; assay type: cell-based, human
PC-3 = assay: NCI cytotoxicity screen; assay type: cell-based, human
MDA-MB-435 = assay: NCI cytotoxicity screen; assay type: cell-based, human
SF-539 = assay: NCI cytotoxicity screen; assay type: cell-based, human
NCI-H23 = assay: NCI cytotoxicity screen; assay type: cell-based, human
[5] = subpanel value, NSC lung cancer
[6] = subpanel value, Prostate cancer

Which GI % (IGROV1; 10.0 μM one dose, IGROV1) does the source give for CCN(CC)c1ccc(C=NNC(=O)CSc2nc3ccccc3c(=O)n2Cc2ccc(S(N)(=O)=O)cc2)c(O)c1 [Compound 5, 4-((2-((2-(2-(4-(Diethylamino)-2-hydroxybenzylidene)hydrazineyl)-2-oxoethyl)thio)-4-oxoquinazolin-3(4H)-yl)methyl)benzenesulfonamide] here?
Its GI % is 74%.

What about the GI50 (IGROV1; Homo sapiens, IGROV-1) of the same compound?
The GI50 was 785 nM.

What about the GI % (COLO 205; 10.0 μM one dose, COLO-205) of the same compound?
The GI % was 102%.

What about the GI50 (COLO 205; Homo sapiens, COLO 205) of the same compound?
The GI50 was 1510 nM.

And the GI % (HT29; 10.0 μM one dose)?
The GI % was 68%.

What about the GI50 (HT29; Homo sapiens) of the same compound?
The GI50 was 3010 nM.

What about the GI % (OVCAR-8; 10.0 μM one dose) of the same compound?
Its GI % is 80%.

What about the GI50 (OVCAR-8; Homo sapiens) of the same compound?
The GI50 was 932 nM.

And the GI % (UACC-62; 10.0 μM one dose)?
Its GI % is 94%.

And the GI50 (UACC-62; Homo sapiens)?
Its GI50 is 886 nM.

What about the GI % (CAKI-1; 10.0 μM one dose) of the same compound?
The GI % was 69%.

What about the GI50 (CAKI-1; Homo sapiens) of the same compound?
Its GI50 is 1020 nM.

What about the CC50 ([1]; Homo sapiens, read-out: LC50) of the same compound?
The CC50 was greater than 100000 nM.

And the GI50 ([1]; Homo sapiens, subpanel value, NSC lung cancer)?
The GI50 was 1100 nM.

And the GI50 [1, 5]?
Its GI50 is 1060 nM.

And the TGI [1, 5]?
Its TGI is “c (Compounds showed values > 100 μM)”.

What about the GI % (NCI-H322M; 10.0 μM one dose) of the same compound?
Its GI % is 67%.

And the GI50 (NCI-H322M; Homo sapiens)?
Its GI50 is 575 nM.

And the GI % (HCC-2998; 10.0 μM one dose, HCC-2998)?
The GI % was 80%.

And the GI50 (HCC-2998; Homo sapiens, HCC 2998)?
Its GI50 is 882 nM.

And the GI % (SNB-75; 10.0 μM one dose)?
Its GI % is 62%.

What about the GI50 (SNB-75; Homo sapiens) of the same compound?
Its GI50 is 2860 nM.

And the GI % (T-47D; 10.0 μM one dose, T-47D)?
The GI % was 94%.

And the GI50 (T-47D; Homo sapiens, T47D)?
The GI50 was 925 nM.

And the GI % (HOP-62; 10.0 μM one dose)?
Its GI % is 79%.

What about the GI50 (HOP-62; Homo sapiens) of the same compound?
The GI50 was 961 nM.

And the GI % (HOP-92)?
Its GI % is 42%.

And the GI % (SR; 10.0 μM one dose)?
Its GI % is 90%.

What about the GI50 (SR; Homo sapiens) of the same compound?
Its GI50 is 212 nM.

What about the GI % (SF-295; 10.0 μM one dose) of the same compound?
Its GI % is 80%.

And the GI50 (SF-295; Homo sapiens)?
Its GI50 is 1470 nM.

What about the GI % (OVCAR-5; 10.0 μM one dose, IGROV-5) of the same compound?
The GI % was 45%.

What about the GI50 (OVCAR-5; Homo sapiens, OVCAR-5) of the same compound?
The GI50 was 2090 nM.

And the GI % (SF-268; 10.0 μM one dose)?
The GI % was 82%.

What about the GI50 (SF-268; Homo sapiens) of the same compound?
The GI50 was 766 nM.

What about the GI50 (HL-60(TB)) of the same compound?
Its GI50 is 412 nM.

And the GI % (SK-MEL-2; 10.0 μM one dose)?
The GI % was 90%.

And the GI50 (SK-MEL-2; Homo sapiens)?
Its GI50 is 2410 nM.

And the GI % (HCT-116; 10.0 μM one dose)?
Its GI % is 79%.

What about the GI50 (HCT-116; Homo sapiens) of the same compound?
The GI50 was 363 nM.

And the GI % (NCI-H460; 10.0 μM one dose)?
Its GI % is 94%.

And the GI50 (NCI-H460; Homo sapiens)?
The GI50 was 424 nM.

And the GI % (SN12C; 10.0 μM one dose, SN-12C)?
Its GI % is 68%.

And the GI50 (SN12C; Homo sapiens, SN12C)?
Its GI50 is 1930 nM.

And the GI % (SW-620; 10.0 μM one dose)?
Its GI % is 79%.

And the GI50 (SW-620; Homo sapiens)?
The GI50 was 949 nM.

And the GI % (SNB-19; 10.0 μM one dose)?
The GI % was 59%.

What about the GI50 (SNB-19; Homo sapiens) of the same compound?
Its GI50 is 2100 nM.

What about the GI % (BT-549; 10.0 μM one dose) of the same compound?
Its GI % is 67%.

And the GI50 (BT-549; Homo sapiens)?
Its GI50 is 2680 nM.

And the CC50 ([2]; Homo sapiens, read-out: LC50)?
Its CC50 is greater than 100000 nM.

And the GI50 ([2]; Homo sapiens, subpanel value, Colon cancer)?
Its GI50 is 1600 nM.

What about the GI50 ([2]; subpanel value, Colon cancer) of the same compound?
Its GI50 is 1560 nM.

What about the TGI ([2]; subpanel value, Colon cancer) of the same compound?
The TGI was “c (Compounds showed values > 100 μM)”.

What about the GI % (EKVX; 10.0 μM one dose) of the same compound?
Its GI % is 65%.

What about the GI50 (EKVX; Homo sapiens) of the same compound?
Its GI50 is 650 nM.

And the GI % (TK-10; 10.0 μM one dose)?
The GI % was 85%.

And the GI50 (TK-10; Homo sapiens)?
The GI50 was 1660 nM.

And the GI % (OVCAR-3; 10.0 μM one dose, IGROV-3)?
The GI % was 85%.

And the GI50 (OVCAR-3; Homo sapiens, OVCAR-3)?
The GI50 was 287 nM.

What about the CC50 ([3]; Homo sapiens, read-out: LC50) of the same compound?
Its CC50 is greater than 100000 nM.

And the GI50 ([3]; Homo sapiens, subpanel value, CNS cancer)?
The GI50 was 1500 nM.

And the GI50 ([3]; subpanel value, CNS cancer)?
The GI50 was 1490 nM.

What about the TGI ([3]; subpanel value, CNS cancer) of the same compound?
Its TGI is “c (Compounds showed values > 100 μM)”.

What about the GI % (MDA-MB-231/ATCC; 10.0 μM one dose, MDA-MB-231/ATCC) of the same compound?
The GI % was 75%.

What about the GI50 (MDA-MB-231/ATCC; Homo sapiens, MDA-MB-231) of the same compound?
Its GI50 is 643 nM.

And the GI % (HCT-15; 10.0 μM one dose)?
Its GI % is 53%.

And the GI50 (HCT-15; Homo sapiens)?
The GI50 was 3620 nM.

What about the CC50 ([4]; Homo sapiens, read-out: LC50) of the same compound?
The CC50 was greater than 100000 nM.

And the GI50 ([4]; Homo sapiens, subpanel value, Prostate cancer)?
Its GI50 is 900 nM.

And the GI50 [4, 6]?
The GI50 was 886 nM.

What about the TGI [4, 6] of the same compound?
The TGI was “c (Compounds showed values > 100 μM)”.

And the GI % (MDA-MB-468; 10.0 μM one dose)?
Its GI % is 110%.

And the GI50 (MDA-MB-468; Homo sapiens)?
The GI50 was 524 nM.

What about the GI % (MALME-3M; 10.0 μM one dose, MALME-3M) of the same compound?
The GI % was 69%.

And the GI50 (MALME-3M; Homo sapiens, Malme-3M)?
The GI50 was 1090 nM.

What about the GI % (NCI-H226; 10.0 μM one dose) of the same compound?
The GI % was 69%.

What about the GI50 (NCI-H226; Homo sapiens) of the same compound?
The GI50 was 894 nM.

And the GI % (UO-31; 10.0 μM one dose)?
Its GI % is 54%.

And the GI50 (UO-31; Homo sapiens)?
The GI50 was 2890 nM.

And the GI % (OVCAR-4; 10.0 μM one dose, IGROV-4)?
Its GI % is 88%.

What about the GI50 (OVCAR-4; Homo sapiens, OVCAR-4) of the same compound?
The GI50 was 311 nM.

What about the GI % (MCF7; 10.0 μM one dose, MCF-7) of the same compound?
Its GI % is 87%.

And the GI50 (MCF7; Homo sapiens, MCF7)?
Its GI50 is 457 nM.

And the GI50 (K-562)?
Its GI50 is 592 nM.

And the GI % (NCI/ADR-RES; 10.0 μM one dose)?
Its GI % is 13%.

What about the GI50 (NCI/ADR-RES; Homo sapiens, five-dose) of the same compound?
The GI50 was greater than 100000 nM.

What about the GI % (PC-3; 10.0 μM one dose) of the same compound?
Its GI % is 51%.

What about the GI50 (PC-3; Homo sapiens) of the same compound?
Its GI50 is 829 nM.

And the GI % (MDA-MB-435; 10.0 μM one dose)?
The GI % was 87%.

What about the GI50 (MDA-MB-435; Homo sapiens) of the same compound?
Its GI50 is 2070 nM.

What about the GI % (SF-539; 10.0 μM one dose) of the same compound?
Its GI % is 72%.

And the GI50 (SF-539; Homo sapiens)?
Its GI50 is 1260 nM.

And the GI % (NCI-H23; 10.0 μM one dose)?
The GI % was 61%.

What about the GI50 (NCI-H23; Homo sapiens) of the same compound?
The GI50 was 1960 nM.
